Patent US20040126437A1, “Typing natural products” (priority 2000, published 2004)
≈ marks a conversion by molar mass, not a printed value.

Legend:
[1] = system: Micrococcus lysodeikticus; settings: cited from earlier work
T. cruzi trypomastigotes = assay: Effects against T. cruzi trypomastigotes cultures; format: cell-based, Trypanosoma cruzi
Method: FIG. 2 are recorded ID50 data related to trypomastigotes cultures (one of the growing stages of Trypanosoma cruzi (T.cruzi)) also to the compounds DCBEN, DHCA, E and mixture E+DPB and the effects of said compounds extracted from propolis trypomastigotes of T.cruzi (in mg/mL). […] The same result for Violet Crystal is 0.205 mg/mL, as previously mentioned. The results for insulated compounds are greater than the Violet Crystal.

A.benhamiae = settings: cited from earlier work
[2] = system: Staphylococcus epidermidis; settings: cited from earlier work
[3] = system: uterus colon carcinoma (line L5-26); settings: uterus colon carcinoma line L5-26; cited from earlier work
[4] = system: fibrosarcoma (line HT-1080); settings: fibrosarcoma line HT-1080; cited from earlier work
[5] = system: Thermoactinomyces intermedius; settings: cited from earlier work
Mycobacterium smegmatis = settings: cited from earlier work
Microsporeum gypseum = settings: cited from earlier work
B.subtilis = settings: cited from earlier work
Staphylococcus aureus [6] = assay: Antibacterial activity, inhibition halos in culture; format: cell-based; settings: Staphylococcus aureus culture
Description: (§1) The insulated compounds DCBEN, DHCA, E and mixture of E+DPB have their antibacterial properties tested in cultures of E.coli, Pseudomonas aeruginosa, Staphylococcus aureus and Streptococcus faecalis. Inhibition halos (in mm) and the obtained data recorded as in FIG. 1.
(§2) Antibacterial activity of the compounds K, G1, G2 e L2 has been evaluated in cultures of E.coli, Pseudomonas aeruginosa, Staphylococcus aureus and Streptococcus faecalis. Inhibition halos have been measured (mm) and the data recorded as in FIG. 1. S.aureus, S.faecalis e E.coli, are sensitive to the tested compounds, just varying the halos, the compound G2 has the most toxity in cultures of S.aureus e S.faecalis. None of the tested compounds had effect in P.aeruginosa.

Escherichia coli = assay: as above; format: cell-based
Description: as §1, §2

Streptococcus faecalis = assay: as above; format: cell-based; settings: Streptococcus faecalis culture
Description: as §1, §2

Pseudomonas aeruginosa [7] = assay: as above; format: cell-based
Description: as §1, §2

Staphylococcus aureus [8] = settings: cited from earlier work
Mycobaterium phlei = settings: cited from earlier work
Pseudomonas aeruginosa [9] = settings: cited from earlier work
Corynebacterium equii = settings: cited from earlier work
[10] = insulated labdan acids; cited from earlier work

SMILES | CIM [1] | ID50/24 h (T. cruzi trypomastigotes) | MIC (A.benhamiae) | CIM [2] | ED50 (cytotoxic dosage—50%) [3] | ED50 (cytotoxic dosage—50%) [4] | MIC [5] | MIC (Mycobacterium smegmatis) | MIC (Microsporeum gypseum) | CIM (B.subtilis) | Antibacterial activty, inhibition halo (Staphylococcus aureus [6]) | Antibacterial effect in words (Escherichia coli; E.coli culture) | Antibacterial activty, inhibition halo (Escherichia coli; Escherichia coli culture) | Antibacterial activty, inhibition halo (Streptococcus faecalis) | Antibacterial activty, inhibition halo (Pseudomonas aeruginosa [7]) | MIC (Staphylococcus aureus [8]) | MIC (Mycobaterium phlei) | MIC (Pseudomonas aeruginosa [9]) | CIM (Corynebacterium equii) | Antibacterial activity by bioautography [10]
CC(C)=CCc1cc(C=CC(=O)O)cc(CC=C(C)C)c1O [DHCA, 3,5-diprenyl-4-hydroxycinnamic acid] | 31.3 µg/mL | 932 ± 46 µg/mL (≈ 3100 µM) | 15,6 μg/mL | 62.5 µg/mL | 59,32 μg/mL | 45.47 µg/mL (≈ 151 µM) | 62.5 µg/mL (≈ 208 µM) | 31.3 µg/mL (≈ 104 µM) | 7,8 μg/mL | 31.3 µg/mL | + (+ halo < or = to 8 mm) | did not present inhibition activity | Ø | + (+ halo < or = to 8 mm) | Ø | 62.5 µg/mL (≈ 208 µM) | 62.5 µg/mL (≈ 208 µM) | 31.3 µg/mL (≈ 104 µM) | 31.3 μg/m/L | 
C=C1CC[C@@H]2[C@](C)(CCC[C@]2(C)C(=O)O)[C@H]1CC[C@H](C)CCO [[d], imbricatoloic acid] |  |  |  |  |  |  |  |  |  |  |  |  |  |  |  |  |  |  |  | most active
